Compound in one assay: COc1cc2nccc(Oc3ccc(NC(=O)C4(C(=O)Nc5ccc(F)cc5)CC4)cc3)c2cc1OC [CABOZANTINIB]
Put plainly: surviving fraction relative to DMSO-only wells; higher = less growth inhibition. To be noted: exposure time: 5 days. The method in brief:
(§1)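 After seeding at 250–500 cells per well in 384-well plates and a 24-hour wait, log-phase tumour cell lines were exposed without interruption for five days to inhibitors at 0.5, 1, 5, 10, 50, 100, 500 and 1000 nM. CellTiter-Glo luminescence was recorded after 10 minutes at room temperature. Viability is reported as surviving fraction, the luminescence normalised to the median of DMSO-only wells.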

Compound in a further assay: Cc1ccc(NC(=O)c2ccc(CN3CCN(C)CC3)cc2)cc1Nc1nccc(-c2cccnc2)n1 [IMATINIB]
The description is as above. To be noted: exposure time: 5 days. The method in brief: as §1

± gives the standard deviation of the averaged measurements.

HCC1806 BREAST: the surviving fraction with CABOZANTINIB (0.5 nM) was 0.863 ± 0.075; in the assay with CABOZANTINIB (1 nM) it was 1.06 ± 0.057; in the assay with CABOZANTINIB (5 nM) it was 1.092 ± 0.0075; with CABOZANTINIB (10 nM), 1.06 ± 0.073; with CABOZANTINIB (50 nM), 1.19 ± 0.078; with CABOZANTINIB (100 nM), 1.08 ± 0.12. In addition, the surviving fraction stood at 1.08 ± 0.021 with CABOZANTINIB (500 nM); 1.09 ± 0.13 in the assay with CABOZANTINIB (1000 nM); 1.06 ± 0.044 with IMATINIB (0.5 nM); 1.05 ± 0.093 with IMATINIB (1 nM); 1.12 ± 0.07 in the assay with IMATINIB (5 nM); 1.16 ± 0.021 with IMATINIB (10 nM). The surviving fraction with IMATINIB (50 nM) was found to be 1.15 ± 0.15; with IMATINIB (100 nM), 1.24 ± 0.08; in the assay with IMATINIB (500 nM), 0.983 ± 0.077; in the assay with IMATINIB (1000 nM), 0.956 ± 0.15.
On to MDAMB361 BREAST, for which the surviving fraction in the assay with CABOZANTINIB (0.5 nM) was found to be 0.842 ± 0.099; with CABOZANTINIB (1 nM), 0.796 ± 0.056; in the assay with CABOZANTINIB (5 nM), 0.816 ± 0.042; with CABOZANTINIB (10 nM), 0.844 ± 0.06; with CABOZANTINIB (50 nM), 0.93 ± 0.081; in the assay with CABOZANTINIB (100 nM) it was 0.887 ± 0.1. Also, the surviving fraction with CABOZANTINIB (500 nM) is 0.903 ± 0.054; in the assay with CABOZANTINIB (1000 nM) it was 0.89 ± 0.12; in the assay with IMATINIB (0.5 nM), 0.927 ± 0.066; with IMATINIB (1 nM), 0.879 ± 0.079; in the assay with IMATINIB (5 nM) it was 0.826 ± 0.018; with IMATINIB (10 nM), 0.878 ± 0.046. The surviving fraction in the assay with IMATINIB (50 nM) came to 0.869 ± 0.082; in the assay with IMATINIB (100 nM), 0.879 ± 0.081; with IMATINIB (1000 nM), 0.827 ± 0.087.

Values taken from the supplement of paper PMC6045584.
